From patent US20090004683A1, “Indicator Agent for Noninflammatory Stress Response and Use Thereof” (priority 2004, published 2009) come the findings set out here.

In test [1] the test system is Primary culture human skin keratinocytes. Put plainly: IL-18 release from keratinocytes with paraquat stimulation. The following applies: keratinocytes, 1 μM paraquat 15 minutes; SOD 1-20 U/ml or water-soluble vitamin E 100 nM-10 mM/ml. It counts as cell-based. On the procedure:
Primary culture human skin keratinocytes (keratinocytes) were cultured in a basal medium for keratinocytes contained in petri dishes for cell culture 6 cm in diameter at 1.0-2.0×10^6/dish. This was cultured in the aforementioned medium containing 1 μM of paraquat, which is an active oxygen generator, for 15 minutes, after which the medium was exchanged with a paraquat-free medium, and the cells were further cultured for 1 hour, after which the medium was collected, and the concentration of IL-18 protein in the medium was measured.

The target of another test is T1, caspase-1 (Mus musculus, UniProt P29452).
T1 construct: from tissue; host or cells: mouse adrenal (homogenate)
T1 sequence (P29452 119-296 limits assumed): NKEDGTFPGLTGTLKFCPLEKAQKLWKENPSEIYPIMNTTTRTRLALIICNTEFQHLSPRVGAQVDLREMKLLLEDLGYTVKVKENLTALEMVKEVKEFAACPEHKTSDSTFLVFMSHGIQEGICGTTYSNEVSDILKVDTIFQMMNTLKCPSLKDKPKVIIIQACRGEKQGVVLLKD
T1 sequence (P29452 315-402 limits assumed): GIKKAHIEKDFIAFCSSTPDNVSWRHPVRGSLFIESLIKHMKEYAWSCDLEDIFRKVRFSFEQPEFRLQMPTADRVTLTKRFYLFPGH
Put plainly: Caspase-1 activity in the adrenal of restraint stress mice (Ac-YVAD-MCA fluorescent substrate). The following applies: given i.p. during restraint. It counts as in vivo. As to the method: (§1) Each mouse was kept in a restrainer for 1 hour, and Ac-YVAD-CHO (200 μM/50 μl PBS(−)), Z-FA-fmk (100 μM/50 μl PBS(−)) and SB-203580 (100 μg/50 μl PBS(−) per mouse) were administered intraperitoneally. 1 and 3 hours after the start of restraint, SOD-1 (20 U) and DPI (30 μg) were administered intraperitoneally to the mouse, and samples were analyzed by Western blotting.
Caspase-1 activity in the adrenal was measured using a caspase assay kit (manufactured by BD-Pharmingen). Describing briefly, a homogenate of adrenal tissue was incubated with Ac-YVAD-MCA (acetyl-L-tyrosyl-L-valyl-L-alanyl-L-aspartic acid 4-methyl-coumaryl-7-amide), which is a fluorescent substrate for caspase-1, and the MCA leaving from the aforementioned substrate was measured using a fluorescence plate reader (excitation wavelength 380 nm, irradiation wavelength 420-460 nm).

The test system of test [2] is phosphorylated (Thr180/Tyr182) P38 MAP kinase. Put plainly: Phosphorylated P38MAP kinase in the adrenal of restraint stress mice (Western blotting). To be noted: SOD-1 20 U i.p. 1 and 3 hours after start of restraint, FIG. 4A. It counts as in vivo, mouse. On the procedure: as §1
Western blot analysis of IL-18 and phosphorylated P38MAP kinase in adrenal tissue was performed as described below. The adrenal tissue was homogenized in an immunoprecipitation (IP) buffer solution (50 mM Tris pH 7.4, 150 mM NaCl, 0.5% NP-40 and 0.5% sodium deoxycholate) containing a protease inhibitor mixture (manufactured by Roche Diagnostics) using a Polytron homogenizer. The homogenate obtained (100 μg protein) was pre-clarified using protein A/G agarose (Exalpha Biologicals, Inc.), incubated with the anti-mouse IL-18 monoclonal antibody or the anti-phosphorylated (Thr180/Tyr182) P38 MAP kinase antibody and protein A/G agarose (50 μl), and centrifuged (at 13000×g for 25 minutes, 4° C.). The precipitate was boiled, and the adrenal protein was recovered, electrophoresed in 10-20% SDS-polyacrylamide gradient gel, and electrically transferred to a Hybond ECL (manufactured by Amersham) nitrocellulose membrane. The aforementioned membrane was incubated with an antibody (IL-18, phosphorylated (Thr180/Tyr182) P38 MAP kinase, caspase-1 or caspase-11), and the reacted protein was detected using an ECL plus system (manufactured by Amersham biosciences). Procaspase-11 and activated P38 MAP kinase were quantified using a Science Lab 99 image analysis system (manufactured by Fujifilm).
In general terms: Immunoblotting shows a protein as a band on a membrane.

The subject of a further test is Abdominal macrophages. Put plainly: IL-18 release from macrophages with paraquat stimulation. To be noted: 100 nM paraquat 15 minutes, SOD 1-20 U/ml. It counts as cell-based, mouse. As to the method: Abdominal macrophages isolated from mice by the method of Hamilton et al. (Hamilton T A, Weiel J E, Adams D O., J. Immunol. 1984 May; 132(5):2285-90) were cultured in Dulbecco's minimum essential medium at 1.0-2.0×10^5/dish. The medium was exchanged with the aforementioned medium containing 100 nM of paraquat, which is an active oxygen generator, and the cells were cultured for 15 minutes, after which the medium was exchanged with a paraquat-free medium, and the cells were further cultured for 3 hours, after which the medium was collected, and the concentration of IL-18 protein in the medium was measured.

In the next test the test system is IL-6. Put plainly: Plasma IL-6 level in stress-loaded wild type mice (ELISA). The class given is in vivo, mouse. To be noted: stress-loaded WT mice; FIG. 5B. On the procedure:
(§2) For restraint stress, each mouse was kept in a restrainer (a round plastic tube 27 mm in diameter) for 1, 3 or 6 hours, and IL-18 levels were measured. Regarding the analysis of IL-6, each mouse was restrained as described above, and then housed in the starting cage for 6 hours, after which a measurement was performed.
After restraint, each mouse was anesthetized with diethyl ether, and blood was drawn into an EDTA-containing tube. Plasma was separated by centrifugation at 4° C. and 10000×g for 10 minutes, and stored at −80° C. IL-18 and IL-6 were analyzed by ELISA using Quantikine™ immunoassay kit (R&D Systems) and OptEIA™ (BD-Pharmingen), respectively.
Using IL-18-deficient mice, the relationship between IL-6, which is another stress-related cytokine, and IL-18, was examined. Without stress, IL-6 was undetectable in WT and IL-18 KO, but after 3 hours of stress loading, the IL-6 level was 230 pg/ml in WT and 25 pg/ml in IL-18 KO (FIG. 5A). After liberation from the stress, plasma IL-6 was kept at about 80 pg/ml in WT, but decreased to 5 pg/ml in IL-18 KO (FIG. 5A). Treatment with YVAD-CHO, SOD and anti-IL-18 antibody 70% inhibited the stress-induced increase in plasma IL-6 level in WT (FIG. 5B).
(In general: An ELISA detects its analyte on a solid surface through an enzyme-linked reagent.)

A further test deals with IL-18 precursor. Put plainly: IL-18 (precursor) level in the adrenal of restraint stress mice. The class given is in vivo, mouse. To be noted: given i.p. during restraint. As to the method: as §2
The anti-ACTH antiserum (50 μl, 1:1), dexamethasone (1 ng/50 μl PBS(−)) or the anti-IL-18 antibody (50 μl, 1:1) was administered intraperitoneally to each mouse; after 10 minutes elapsed, the animal was kept in a restraint tube for 6 hours. Synthetic ACTH (250 μg/50 μl PBS(−)) was injected to the left leg; after 6 hours elapsed, the mice were subjected to the experiment.
as §1
Western blot analysis of IL-18 and phosphorylated P38MAP kinase in adrenal tissue was performed as described below. […] Procaspase-11 and activated P38 MAP kinase were quantified using a Science Lab 99 image analysis system (manufactured by Fujifilm).

For the substance “SOD: superoxide dismutase (SOD)-1 purchased from Sigma; active oxygen eliminator”, the “activation and release of IL-18 into the medium” value (in test [1]; with Abdominal macrophages) was “suppressed” in each case. Also, the “stress-induced increase in caspase-1 activity in the adrenal” value in the test with caspase-1 is reported as “reduced”. Moreover, in test [2], the “inhibition of the phosphorylation of P38MAP kinase in the adrenal” value is reported as “about 70%”. Besides, in the test with IL-6, the “inhibition of the stress-induced increase in plasma IL-6 level” value stood at 70%. Further, the “IL-18 precursor protein level in the adrenal” value in the test on IL-18 precursor is listed as “did not reduce”.
